Where a name gives a salt, the structure may show the parent alone.
What was measured:
serotonin transporter = target: T1, serotonin transporter (Rattus norvegicus, UniProt P31652); assay: 3H-paroxetine displacement, serotonin transporter affinity; assay type: binding
T1 construct: displace ^3H-paroxetine from male rat frontal cortical membranes; from tissue; host or cells: male rat frontal cortex membranes

human 5-HT1A receptors = target: T2, human 5-HT1A receptors (Homo sapiens, UniProt P08908); assay: [3H] 8-OHDPAT displacement, 5-HT1A receptor affinity; assay type: binding; details: displacement of [3H] 8-OHDPAT; CHO cells stably transfected with human 5-HT1A receptors
T2 construct: expressed in transfected cells; host or cells: CHO cells, stably transfected
T2 sequence (P08908 1-422): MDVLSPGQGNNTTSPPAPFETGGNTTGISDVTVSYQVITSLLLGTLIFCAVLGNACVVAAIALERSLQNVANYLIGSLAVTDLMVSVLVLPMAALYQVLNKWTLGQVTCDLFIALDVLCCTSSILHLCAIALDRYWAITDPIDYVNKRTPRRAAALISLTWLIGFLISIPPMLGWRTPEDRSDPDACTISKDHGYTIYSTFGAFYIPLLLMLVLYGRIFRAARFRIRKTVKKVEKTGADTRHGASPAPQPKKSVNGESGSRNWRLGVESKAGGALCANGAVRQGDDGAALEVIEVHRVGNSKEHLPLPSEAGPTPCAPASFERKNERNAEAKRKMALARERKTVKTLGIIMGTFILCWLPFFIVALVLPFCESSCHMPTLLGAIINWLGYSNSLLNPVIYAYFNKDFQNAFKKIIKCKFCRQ
Description: High affinity for the serotonin 5-HT1A receptor was established by testing the claimed compound's ability to displace [^3H] 8-OHDPAT (dipropylaminotetralin) from the 5-HT1A serotonin receptor following a modification of the procedure of Hall et al., J. Neurochem. 44, 1685 (1985) which utilizes CHO cells stably transfected with human 5-HT1A receptors.

[1] = target: T3, cloned human 5-HT1A receptors (Homo sapiens, UniProt P08908); assay: 35S-GTPγS binding assay, 5-HT1A function; assay type: biochemical; details: for EC50: 35S-GTPγS binding to membranes containing cloned human 5-HT1A receptors; for Emax: maximum stimulatory effect on 35S-GTPγS binding, value in parentheses
T3 construct: expressed in transfected cells
T3 sequence (P08908 1-422): T2 sequence (P08908 1-422)
Method: Agonist activity at 5-HT1A receptors was established by using a ^35S-GTPγS binding assay similar to that used by Lazareno and Birdsall (Br. J. Pharmacol. 109: 1120, 1993), in which the test compound's ability to affect the binding of ^35S-GTPγS to membranes containing cloned human 5-HT1A receptors was determined. Agonists produce an increase in binding whereas antagonists produce no increase but rather reverse the effects of the standard agonist 8-OHDPAT. The test compound's maximum stimulatory effect is represented as the Emax, while its potency is defined by the EC50.

T1 sequence (P31652 whole entry): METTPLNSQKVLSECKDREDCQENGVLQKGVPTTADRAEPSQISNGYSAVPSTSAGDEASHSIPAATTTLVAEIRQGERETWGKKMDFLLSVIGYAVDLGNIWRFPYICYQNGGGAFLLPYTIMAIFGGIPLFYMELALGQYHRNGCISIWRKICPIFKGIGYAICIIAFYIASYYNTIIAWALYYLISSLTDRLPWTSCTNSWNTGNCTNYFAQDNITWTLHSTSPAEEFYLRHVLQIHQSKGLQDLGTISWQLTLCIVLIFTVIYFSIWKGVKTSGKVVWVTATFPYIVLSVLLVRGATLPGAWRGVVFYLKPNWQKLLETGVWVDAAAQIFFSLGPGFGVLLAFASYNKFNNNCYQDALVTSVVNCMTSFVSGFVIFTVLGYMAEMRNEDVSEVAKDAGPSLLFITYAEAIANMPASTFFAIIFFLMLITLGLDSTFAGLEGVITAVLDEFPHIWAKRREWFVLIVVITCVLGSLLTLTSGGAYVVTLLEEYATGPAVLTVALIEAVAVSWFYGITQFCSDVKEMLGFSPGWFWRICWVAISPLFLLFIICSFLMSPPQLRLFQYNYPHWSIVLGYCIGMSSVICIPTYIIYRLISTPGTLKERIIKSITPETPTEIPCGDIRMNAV

Compound | Ki (serotonin transporter) [nM] | Ki (human 5-HT1A receptors) [nM] | EC50 [1] [nM] | Emax [1] [%] | melting point [°C]
Fc1ccc2[nH]cc(C3=CCN(C[C@H]4CCc5ccc6ncccc6c5O4)CC3)c2c1 [Example 3, (6R)-6-[4-(5-Fluoro-1H-indol-3-yl)-3,6-dihydro-2H-pyridin-1-ylmethyl]-7,8-dihydro-6H-5-oxa-1aza-phenanthrene] | 6 | 82.3 | 78.9 | 52 | 
Fc1ccc2[nH]cc(C3=CCN(C[C@@H]4CCc5ccc6ncccc6c5O4)CC3)c2c1 (as salt: oxalate) [Example 2, (6S)-6-[4-(5-Fluoro-1H-indol-3-yl)-3,6-dihydro-2H-pyridin-1-ylmethyl]-7,8-dihydro-6H-5-oxa-1aza-phenanthrene] |  |  |  |  | 210
Fc1ccc2[nH]cc(C3=CCN(C[C@@H]4CCc5ccc6ncccc6c5O4)CC3)c2c1 [Example 2, (6S)-6-[4-(5-Fluoro-1H-indol-3-yl)-3,6-dihydro-2H-pyridin-1-ylmethyl]-7,8-dihydro-6H-5-oxa-1aza-phenanthrene] | 5.96 | 88.6 |  | 5 | 
Fc1ccc2[nH]cc(C3=CCN(CC4CCc5ccc6ncccc6c5O4)CC3)c2c1 (centres unmarked) [Example 1, 6-[4-(5-Fluoro-1H-indol-3-yl)-3,6-dihydro-2H-pyridin-1-ylmethyl]-7,8-dihydro-6H-5-oxa-1aza-phenanthrene] | 8 | 60.9 | 103 | 49 | 
Fc1ccc2[nH]cc(C3=CCN(C[C@H]4CCc5ccc6ncccc6c5O4)CC3)c2c1 (as salt: fumarate) [Example 3, (6R)-6-[4-(5-Fluoro-1H-indol-3-yl)-3,6-dihydro-2H-pyridin-1-ylmethyl]-7,8-dihydro-6H-5-oxa-1aza-phenanthrene] |  |  |  |  | 210
Fc1ccc2[nH]cc(C3=CCN(CC4CCc5ccc6ncccc6c5O4)CC3)c2c1 (centres unmarked) (as salt: oxalate) [Example 1, 6-[4-(5-Fluoro-1H-indol-3-yl)-3,6-dihydro-2H-pyridin-1-ylmethyl]-7,8-dihydro-6H-5-oxa-1aza-phenanthrene] |  |  |  |  | 148

— patent US7030245B2, “Antidepressant azahetorocyclylmethyl derivatives of 7,8-dihydro-6H-5-oxa-1-aza-phenathrene” (Wyeth, priority 2001, dated 2006)
